ChEMBL document CHEMBL3804811 (J Med Chem, 2016)

Key:
[1] = Clearance in Sprague-Dawley rat at 10 mg/kg, iv administered as single dose by LC-MS/MS analysis; type: ADME, organism-based; conditions: in vivo
[2] = Antiproliferative activity against human MV411 cells incubated for 72 hrs by cell titer-glo assay; type: functional, cell-based; conditions: MV4-11, 72 h
[3] = biological target: T1, Eukaryotic elongation factor 2 kinase (Homo sapiens, UniProt O00418); assay: Inhibition of EEF2K (unknown origin) in presence of gamma33-ATP
T1 sequence (O00418 whole entry): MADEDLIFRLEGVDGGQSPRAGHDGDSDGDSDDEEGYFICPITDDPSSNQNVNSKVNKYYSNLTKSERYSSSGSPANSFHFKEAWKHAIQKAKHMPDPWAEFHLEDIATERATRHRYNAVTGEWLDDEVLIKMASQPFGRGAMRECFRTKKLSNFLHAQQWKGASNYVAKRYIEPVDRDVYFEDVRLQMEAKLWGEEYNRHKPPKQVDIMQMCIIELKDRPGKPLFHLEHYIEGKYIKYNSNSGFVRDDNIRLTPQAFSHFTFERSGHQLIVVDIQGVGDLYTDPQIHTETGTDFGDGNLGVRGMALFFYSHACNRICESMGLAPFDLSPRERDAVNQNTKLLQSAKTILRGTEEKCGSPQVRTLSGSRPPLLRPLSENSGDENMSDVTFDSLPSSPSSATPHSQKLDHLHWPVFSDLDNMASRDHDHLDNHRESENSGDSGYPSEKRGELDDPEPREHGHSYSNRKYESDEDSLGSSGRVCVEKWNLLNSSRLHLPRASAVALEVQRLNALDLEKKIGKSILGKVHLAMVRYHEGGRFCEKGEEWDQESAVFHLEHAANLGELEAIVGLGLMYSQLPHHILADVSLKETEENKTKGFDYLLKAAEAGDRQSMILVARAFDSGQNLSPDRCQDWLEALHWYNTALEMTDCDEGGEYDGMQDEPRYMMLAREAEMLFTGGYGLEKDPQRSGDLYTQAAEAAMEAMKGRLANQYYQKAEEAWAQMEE

[4] = Half life in Harlan nu/nu mouse at 10 mg/kg, iv administered as single dose by LC-MS/MS analysis; type: ADME, organism-based; conditions: in vivo
[5] = Intrinsic clearance in human liver microsomes at […] preincubated for 5 mins followed by NADPH addition measured after 5 to 30 mins by LC-MS/MS analysis; type: ADME; conditions: read-out: CLH
[6] = biological target: T2, Inhibitor of nuclear factor kappa-B kinase subunit beta (Homo sapiens, UniProt O14920); assay: Inhibition of IKK2 (unknown origin) in presence of gamma33-ATP
T2 sequence (O14920 whole entry): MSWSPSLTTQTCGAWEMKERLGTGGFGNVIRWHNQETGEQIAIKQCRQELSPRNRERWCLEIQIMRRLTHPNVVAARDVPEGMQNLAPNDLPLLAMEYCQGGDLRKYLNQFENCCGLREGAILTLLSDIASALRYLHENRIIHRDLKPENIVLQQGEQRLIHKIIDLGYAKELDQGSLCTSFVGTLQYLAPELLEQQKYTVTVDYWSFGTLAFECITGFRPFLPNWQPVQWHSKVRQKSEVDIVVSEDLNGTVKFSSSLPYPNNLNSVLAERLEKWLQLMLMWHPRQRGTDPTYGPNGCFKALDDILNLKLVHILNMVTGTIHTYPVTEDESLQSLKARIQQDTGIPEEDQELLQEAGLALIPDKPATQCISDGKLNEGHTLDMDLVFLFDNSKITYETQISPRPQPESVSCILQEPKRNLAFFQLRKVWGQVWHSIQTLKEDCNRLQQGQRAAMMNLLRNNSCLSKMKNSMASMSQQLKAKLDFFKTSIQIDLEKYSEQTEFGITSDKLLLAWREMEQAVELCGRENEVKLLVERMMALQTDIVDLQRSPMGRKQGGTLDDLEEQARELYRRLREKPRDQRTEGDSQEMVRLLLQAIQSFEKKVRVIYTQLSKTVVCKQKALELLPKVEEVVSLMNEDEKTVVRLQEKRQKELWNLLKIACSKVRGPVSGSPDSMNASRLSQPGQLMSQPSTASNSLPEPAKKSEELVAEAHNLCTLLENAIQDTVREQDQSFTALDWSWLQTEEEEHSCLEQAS

[7] = Cytotoxicity against mouse IL-3 dependent BA/F3 cells incubated for 72 hrs by cell titer-glo assay; type: cell-based; conditions: BaF3, 72 h
[8] = AUC (infinity) in Beagle dog at 10 mg/kg, iv administered as single dose by LC-MS/MS analysis; type: ADME, organism-based, Canis lupus familiaris; set-up: dose 10 mg/kg, route intravenous, time infinity; conditions: in vivo
[9] = AUC (infinity) in Harlan nu/nu mouse at 10 mg/kg, iv administered as single dose by LC-MS/MS analysis; type: ADME, organism-based; set-up: dose 10 mg/kg, time infinity, route intravenous; conditions: in vivo
[10] = Antiproliferative activity against human KARPAS299 cells incubated for 72 hrs by cell titer-glo assay; conditions: KARPAS-299, 72 h

CN1CCN(c2ccc(C(=O)Nc3n[nH]c4ccc(Cc5cc(F)cc(F)c5)cc34)c(NC3CCOCC3)c2)CC1 [ENTRECTINIB]
clearance [1]: 20.8 mL/min/kg
IC50 [2]: 0.081 µM
IC50 [3]: > 10 µM
half-life [4]: 3.59 h
CLint scaled [5]: 33 mL/min/kg
IC50 [6]: > 10 µM
IC50 [7]: 2.1 µM
AUC(0-inf) [8]: 17.6 µM·h
AUC(0-inf) [9]: 19.6 µM·h
IC50 [10]: 0.031 µM
